Experimental data reported in patent US9598440B2, “Inhibitors of IRAK4 activity” (MERCK SHARP & DOHME CORP., priority 2012, dated 2017).
One block for each compound: values may come before it.

Biological target: IRAK4 (Homo sapiens (Human), UniProt Q9NWZ3)
Test: Determination of IRAK4 kinase activity (IMAP fluorescence polarization, phosphorylation of fluorescent peptide substrate)
Assay type: biochemical
Details: 0.5 nM GST tagged IRAK4, 100 nM peptide substrate RP7030, 100 μM ATP, 30 minutes at 25° C.
In short: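 GST-tagged IRAK4 (0.5 nM) phosphorylated 100 nM fluorescent peptide substrate with 100 µM ATP in Tris-HCl pH 7.2, 1 mM MgCl2, 1 mM DTT, 0.01% Tween 20 for 30 min at 25 °C. Phosphorylation read by IMAP nanoparticle binding as fluorescence polarization increase.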

Sequence of IRAK4 (Q9NWZ3 whole entry): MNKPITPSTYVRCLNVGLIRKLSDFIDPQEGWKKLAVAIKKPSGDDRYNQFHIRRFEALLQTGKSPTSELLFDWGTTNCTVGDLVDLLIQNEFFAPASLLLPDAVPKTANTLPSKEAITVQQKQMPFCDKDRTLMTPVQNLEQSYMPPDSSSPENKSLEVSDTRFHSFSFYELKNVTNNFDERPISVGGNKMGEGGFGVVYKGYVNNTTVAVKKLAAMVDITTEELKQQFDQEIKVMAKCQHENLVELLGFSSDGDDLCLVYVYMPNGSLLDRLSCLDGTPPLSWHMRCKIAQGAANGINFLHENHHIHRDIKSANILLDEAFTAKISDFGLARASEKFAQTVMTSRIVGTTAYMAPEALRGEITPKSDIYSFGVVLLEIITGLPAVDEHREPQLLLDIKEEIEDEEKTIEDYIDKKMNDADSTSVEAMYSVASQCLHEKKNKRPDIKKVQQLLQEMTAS

Structure (SMILES): OC[C@H]1C[C@@H](Nc2nc(NCC3CC3)ncc2-c2nc3ccccc3s2)[C@H](O)[C@@H]1O [Example 15, (1R,2S,3R,5R)-3-((5-(benzo[d]thiazol-2-yl)-2-((cyclopropylmethyl)amino)pyrimidin-4-yl)amino)-5-(hydroxymethyl)cyclopentane-1,2-diol]
IC50: 333 nM

Structure (SMILES): COc1cc(Nc2cc(N[C@@H]3C[C@H](C(C)(C)O)[C@@H](O)[C@H]3O)c(-c3ccc4ccccc4n3)cn2)ccn1 [Example 163, (1S,2R,3S,5R)-3-(2-hydroxypropan-2-yl)-5-((2-((2-methoxypyridin-4-yl)amino)-5-(quinolin-2-yl)pyridin-4-yl)amino)cyclopentane-1,2-diol]
IC50: 20 nM

Structure (SMILES): Cc1nc(Nc2cccc(Cl)c2)nc(N[C@@H]2C[C@H](CO)[C@@H](O)[C@H]2O)c1-c1nc2ccccc2s1 [Example 106, (1R,2S,3R,5R)-3-((5-(benzo[d]thiazol-2-yl)-2-((3-chlorophenyl)amino)-6-methylpyrimidin-4-yl)amino)-5-(hydroxymethyl)cyclopentane-1,2-diol]
IC50: 519 nM

Structure (SMILES): Nc1ncc(-c2nc3cnccc3s2)c(N[C@@H]2C[C@H](CO)[C@@H](O)[C@H]2O)n1 [Example 20, (1R,2S,3R,5R)-3-((2-amino-5-(thiazolo[4,5-c]pyridin-2-yl)pyrimidin-4-yl)amino)-5-(hydroxymethyl)cyclopentane-1,2-diol]
IC50: 24 nM

Structure (SMILES): CN1CCCC(Nc2ncc(-c3nc4ccccc4s3)c(N[C@@H]3C[C@H](CO)[C@@H](O)[C@H]3O)n2)C1 (mixture of isomers) [Example 32, (1R,2S,3R,5R)-3-((5-(benzo[d]thiazol-2-yl)-2-(((RS)-1-methylpiperidin-3-yl)amino)pyrimidin-4-yl)amino)-5-(hydroxymethyl)cyclopentane-1,2-diol]
IC50: 934 nM

Structure (SMILES): COc1cccc([C@@H](C)Nc2ncc(-c3nc4ccccc4s3)c(N[C@@H]3C[C@H](CO)[C@@H](O)[C@H]3O)n2)c1 [Example 36, (1R,2S,3R,5R)-3-((5-(benzo[d]thiazol-2-yl)-2-(((R)-1-(3-methoxyphenyl)ethyl)amino)pyrimidin-4-yl)amino)-5-(hydroxymethyl)cyclopentane-1,2-diol]
IC50: 470 nM

Structure (SMILES): C[C@H]1C[C@@H](Nc2nc(N)ncc2-c2nc3ccccc3s2)[C@H](O)[C@@H]1O [Example 146, (1R,2S,3R,5S)-3-((2-amino-5-(benzo[d]thiazol-2-yl)pyrimidin-4-yl)amino)-5-methylcyclopentane-1,2-diol]
IC50: 290 nM

Structure (SMILES): OC[C@H]1C[C@@H](Nc2nc(Nc3ccncn3)ncc2-c2nc3ccccc3s2)[C@H](O)[C@@H]1O [Example 25, (1R,2S,3R,5R)-3-((5-(benzo[d]thiazol-2-yl)-2-(pyrimidin-4-ylamino)pyrimidin-4-yl)amino)-5-(hydroxymethyl)cyclopentane-1,2-diol]
IC50: 34 nM

Structure (SMILES): COc1cccc(Nc2ncc(-c3nc4ccccc4s3)c(N[C@@H]3CC(C(C)(C)O)[C@@H](O)[C@H]3O)n2)c1 (stereo in doubt) [Example 117, 5-(benzo[d]thiazol-2-yl)-6-(((1R,2S,3R,4R)-2,3-dihydroxy-4-(2-hydroxypropan-2-yl)cyclopentyl)amino)-2-((3-methoxyphenyl)amino)pyrimidine]
IC50: 20 nM

Structure (SMILES): OC[C@H]1C[C@@H](Nc2nc(NC3CCNCC3)ncc2-c2nc3ccccc3s2)[C@H](O)[C@@H]1O [Example 52, (1R,2S,3R,5R)-3-((5-(benzo[d]thiazol-2-yl)-2-(piperidin-4-ylamino)pyrimidin-4-yl)amino)-5-(hydroxymethyl)cyclopentane-1,2-diol]
IC50: 687 nM

Structure (SMILES): COc1cc(Nc2ncc(-c3nc4ccccc4s3)c(N[C@@H]3C[C@H](CO)[C@@H](O)[C@H]3OC)n2)ccn1 [Example 139, (1R,2S,3R,5R)-3-((5-(benzo[d]thiazol-2-yl)-2-((2-methoxypyridin-4-yl)amino)pyrimidin-4-yl)amino)-5-(hydroxymethyl)-2-methoxycyclopentanol]
IC50: 29 nM

Structure (SMILES): Nc1ccc(-c2nc3ccccc3s2)c(N[C@@H]2C[C@H](CO)[C@@H](O)[C@H]2O)n1 [Example 158, (1R,2S,3R,5R)-3-((6-amino-3-(benzo[d]thiazol-2-yl)pyridin-2-yl)amino)-5-(hydroxymethyl)cyclopentane-1,2-diol]
IC50: 9510 nM

Structure (SMILES): Cc1cccc(Nc2ncc(-c3nc4ccccc4s3)c(N[C@@H]3CC(C(C)(C)O)[C@@H](O)[C@H]3O)n2)c1 (stereo in doubt) [Example 118, 5-(benzo[d]thiazol-2-yl)-6-(((1R,2S,3R,4R)-2,3-dihydroxy-4-(2-hydroxypropan-2-yl)cyclopentyl)amino)-2-(m-tolylamino)pyrimidine]
IC50: 16 nM

Structure (SMILES): OC[C@H]1C[C@@H](Nc2nc(NC3COC3)ncc2-c2nc3ccccc3s2)[C@H](O)[C@@H]1O [Example 12, (1R,2S,3R,5R)-3-((5-(benzo[d]thiazol-2-yl)-2-(oxetan-3-ylamino)pyrimidin-4-yl)amino)-5-(hydroxymethyl)cyclopentane-1,2-diol]
IC50: 236 nM

Structure (SMILES): Nc1ncc(-c2ccc3ccccc3n2)c(N[C@@H]2C[C@H](CO)[C@@H](O)[C@H]2O)n1 [Example 19, (1R,2S,3R,5R)-3-((2-amino-5-(quinolin-2-yl)pyrimidin-4-yl)amino)-5-(hydroxymethyl)cyclopentane-1,2-diol]
IC50: 104 nM

Structure (SMILES): OC[C@H]1C[C@@H](Nc2nc(NC3CCCNC3)ncc2-c2nc3ccccc3s2)[C@H](O)[C@@H]1O (mixture of isomers) [Example 47, (1R,2S,3R,5R)-3-((5-(benzo[d]thiazol-2-yl)-2-((RS)-piperidin-3-ylamino)pyrimidin-4-yl)amino)-5-(hydroxymethyl)cyclopentane-1,2-diol]
IC50: 3270 nM

Structure (SMILES): Cc1nc(Nc2cccc(C(N)=O)c2)nc(N[C@@H]2C[C@H](CO)[C@@H](O)[C@H]2O)c1-c1nc2ccccc2s1 [Example 102, 3-((5-(benzo[d]thiazol-2-yl)-4-(((1R,2S,3R,4R)-2,3-dihydroxy-4-(hydroxymethyl)cyclopentyl)amino)-6-methylpyrimidin-2-yl)amino)benzamide]
IC50: 142 nM

Stronger by IC50, values ahead:

IC50: 10 nM
Structure (SMILES): Cc1cc(C)cc(Nc2ncc(-c3nc4ccccc4s3)c(N[C@@H]3C[C@H](CO)[C@@H](O)[C@H]3O)n2)c1 [Example 35, (1R,2S,3R,5R)-3-((5-(benzo[d]thiazol-2-yl)-2-((3,5-dimethylphenyl)amino)pyrimidin-4-yl)amino)-5-(hydroxymethyl)cyclopentane-1,2-diol]

IC50: 10 nM
Structure (SMILES): CC(C)(O)C1C[C@@H](Nc2nc(Nc3ccnc(C(F)(F)F)c3)ncc2-c2nc3ccccc3s2)[C@H](O)[C@@H]1O (stereo in doubt) [Example 120, 5-(benzo[d]thiazol-2-yl)-6-(((1R,2S,3R,4R)-2,3-dihydroxy-4-(2-hydroxypropan-2-yl)cyclopentyl)amino)-2-((2-(trifluoromethyl)pyridin-4-yl)amino)pyrimidine]

IC50: 1.2 nM
Structure (SMILES): Cc1cc(Nc2ncc(-c3nc4ccccc4s3)c(N[C@@H]3C[C@H](CO)[C@@H](O)[C@H]3O)n2)ccn1 [Example 31, (1R,2S,3R,5R)-3-((5-(benzo[d]thiazol-2-yl)-2-((2-methylpyridin-4-yl)amino)pyrimidin-4-yl)amino)-5-(hydroxymethyl)cyclopentane-1,2-diol]

IC50: 9 nM
Structure (SMILES): COc1cc(Nc2ncc(-c3nc4ccccc4s3)c(N[C@@H]3CC(C(C)(C)O)[C@@H](O)[C@H]3O)n2)ccn1 (stereo in doubt) [Example 126, 5-(benzo[d]thiazol-2-yl)-6-(((1R,2S,3R,4R)-2,3-dihydroxy-4-(2-hydroxypropane-2-yl)cyclopentyl)amino)-2-((2-methoxypyridin-4-yl)amino)pyrimidine]

IC50: 3 nM
Structure (SMILES): Cc1cc(Nc2cc(N[C@H]3C[C@@H](C(C)(C)O)[C@H](O)[C@@H]3O)c(-c3ccc4ccccc4n3)cn2)cc(C)n1 (stereo in doubt) [Example 164, (1S,2R,3 S,5R)-3-((2-((2,6-dimethylpyridin-4-yl)amino)-5-(quinolin-2-yl)pyridin-4-yl)amino)-5-(2-hydroxypropan-2-yl)cyclopentane-1,2-diol]

IC50: 4 nM
Structure (SMILES): COc1cc(Nc2ncc(-c3ccc4ccccc4n3)c(N[C@@H]3CC(C(C)(C)O)[C@@H](O)[C@H]3O)n2)ccn1 (stereo in doubt) [Example 112, 6-(((1R,2S,3R,4R)-2,3-dihydroxy-4-(2-hydroxypropan-2-yl)cyclopentyl)amino)-2-((2-methoxypyridin-4-yl)amino)-5-(quinolin-2-yl)pyrimidine]

IC50: 1.03 nM
Structure (SMILES): Nc1ncc(-c2nc3cccnc3s2)c(N[C@@H]2C[C@H](CO)[C@@H](O)[C@H]2O)n1 [Example 83, (1R,2S,3R,5R)-3-((2-amino-5-(thiazolo[5,4-b]pyridin-2-yl)pyrimidin-4-yl)amino)-5-(hydroxymethyl)cyclopentane-1,2-diol]

IC50: 2.1 nM
Structure (SMILES): COC(=O)[C@H]1C[C@@H](Nc2nc(Nc3cc(C)nc(C)c3)ncc2-c2nc3ccccc3s2)[C@H](OC)[C@@H]1O [Example 148]

IC50: 2 nM
Structure (SMILES): COc1cc(Nc2ncc(-c3nc4ccncc4s3)c(N[C@@H]3C[C@H](CO)[C@@H](O)[C@H]3O)n2)ccn1 [Example 75, 6-(((1R,2S,3R,4R)-2,3-dihydroxy-4-(hydroxymethyl)cyclopentyl)amino)-2-((2-methoxypyridin-4-yl)amino)-5-(thiazolo[5,4-c]pyridin-2-yl)pyrimidine]

IC50: 0.2 nM
Structure (SMILES): Cc1cc(Nc2ncc(-c3nc4ccncc4s3)c(N[C@@H]3C[C@H](CO)[C@@H](O)[C@H]3O)n2)cc(C)n1 [Example 68, (1R,2S,3R,5R)-3-((2-((2,6-dimethylpyridin-4-yl)amino)-5-(thiazolo[5,4-c]pyridin-2-yl)pyrimidin-4-yl)amino)-5-(hydroxymethyl)cyclopentane-1,2-diol]

IC50: 0.2 nM
Structure (SMILES): Cc1cc(Nc2ncc(-c3nc4cnccc4s3)c(N[C@@H]3CC(C(C)(C)O)[C@@H](O)[C@H]3O)n2)cc(C)n1 (stereo in doubt) [Example 137, 6-(((1R,2S,3R,4R)-2,3-dihydroxy-4-(2-hydroxypropan-2-yl)cyclopentyl)amino)-2-((2,6-dimethylpyridin-4-yl)amino)-5-(thiazolo[4,5-c]pyridin-2-yl)pyrimidine]
